The values that follow are results of earlier work, collected in PubChem BioAssay AID1259410 (Chemical Carcinogenesis Research Information System (CCRIS), 2018).

In this data set the test system is rodent tumor promotion studies, tumor incidence. The experiment in a line: CCRIS tumor promotion studies.

The structures appear in SMILES notation.

`CCCCCCC(=O)C/C=C/CCCCCCCC(=O)OC`: the outcome is listed as “forestomach” (Carcinogen: 4-NITROQUINOLINE-1-OXIDE, Doses [Carcinogen]: IG, Doses [Promoter]: IN DIET, Route [Carcinogen]: GAVAGE, Route [Promoter]: ORAL, Species: MOUSE, Strain/Sex: MALE,FEMALE) and “integumentary system (skin)” (Carcinogen: 7,12-DIMETHYLBENZ(A)ANTHRACENE, Doses [Carcinogen]: TOP, Route [Carcinogen]: DERMAL, Route [Promoter]: DERMAL, Species: MOUSE, Strain/Sex: MALE,FEMALE).

On to `CCC(=O)Oc1ccc2c(c1)CC[C@@H]1[C@@H]2CC[C@]2(C)[C@@H](OC(=O)CC)CC[C@@H]12`, for which, under “Carcinogen: 1,2-DIMETHYLHYDRAZINE, 540-73-8, Doses [Carcinogen]: 8 MG/KG BW 1/WK FOR 20 WK, Doses [Promoter]: 0, 0.1 ML OF A SOLUTION IN OLIVE OIL 1/WK FOR 30 WK ADMINISTERED 1 DAY PRIOR TO EACH CARCINOGEN DOSE AND CONTINUING FOR, Route [Carcinogen]: SUBCUTANEOUS, Route [Promoter]: SUBCUTANEOUS, Species: MOUSE, Strain/Sex: C3H/FEMALE”, the outcome is reported as “uterus: sarcoma”.

With `COC(=O)[C@H]1[C@@H](OC(=O)c2ccccc2)C[C@@H]2CC[C@H]1N2C`, the outcome (Carcinogen: MURINE SARCOMA VIRUS, Doses [Promoter]: 0, 0.5 MG/KG/D FOR 3 D BEGINNING ON DAY OF VIRUS INJECTION (STUDY DURATION: 20 D), Route [Carcinogen]: INTRAMUSCULAR, Route [Promoter]: SUBCUTANEOUS, Species: MOUSE, Strain/Sex: BALB/FEMALE) is listed as “injection site: tumor”.

With `O=C(O)/C=C/c1ccc(O)c(O)c1`, the outcome is reported as “forestomach: papilloma” (Carcinogen: DIETHYLNITROSAMINE, 55-18-5, N-METHYLNITROSOUREA, 684-93-5, 1,2-DIMETHYLHYDRAZINE, 540-73-8, N-BUTYL-N-(4-HYDROXYBUTYL)N, Carcinogen: DIETHYLNITROSAMINE, 55-18-5, N-METHYLNITROSOUREA, 684-93-5, 1,2-DIMETHYLHYDRAZINE, 540-73-8, N-BUTYL-N-(4-HYDROXYBUTYL)N, Doses [Carcinogen]: 100 MG/KG BW DEN ONCE FOLLOWED BY 20 MG/KG BW MNU 2/WK FOR 2 WK THEN 40 MG/KG BW DMH 2/WK FOR THE NEXT 2WK, 0.05% BBN IN, Doses [Promoter]: 0, 0.4% IN DIET FOR 24 WK BEGINNING POST CARCINOGEN TREATMENT (STUDY DURATION: 28 WK), Route [Carcinogen]: INTRAPERITONEAL, INTRAPERITONEAL, SUBCUTANEOUS, ORAL, Route [Carcinogen]: INTRAPERITONEAL, INTRAPERITONEAL, SUBCUTANEOUS, ORAL, Route [Promoter]: ORAL, Species: RAT, Strain/Sex: F344/MALE) and “forestomach: papilloma, squamous cell carcinoma” (Carcinogen: N-METHYL-N'-NITRO-N-NITROSOGUANIDINE, 70-25-7, Doses [Carcinogen]: 150 MG/KG BW IN 50% DMSO ONCE, Doses [Promoter]: 1% IN DIET BEGINNING 1 WK POST CARCINOGEN TREATMENT FOR 51 WK (STUDY DURATION: 52 WK), Route [Carcinogen]: GAVAGE, Route [Promoter]: ORAL, Species: RAT, Strain/Sex: F344/MALE).

As for `C=O`, the outcome reads like this: (Carcinogen: Benzo[a]pyrene, 50-32-8, Doses [Carcinogen]: 150 mg applied once, Doses [Promoter]: 0 (acetone), 0.1, 0.5, 1.0 mg/mouse, 3x.wk for 26 wk, study duration 26 wk, Doses [Promoter]: 0 (acetone), 0.1, 0.5, 1.0 mg/mouse, 3x.wk for 26 wk, study duration 26 wk, Route [Carcinogen]: Not reported, Route [Promoter]: Dermal, Species: Mouse, Strain/Sex: CD-1/Female (30/Group)) “skin: results were negative”; (Carcinogen: N,N-Diethylnitrosamine, 55-18-5, Doses [Carcinogen]: 0.5 mg injections once a wk for 10 wk, Doses [Promoter]: 30 ppm weekly doses in various combinations from wk 12 for life of the animal, Route [Carcinogen]: Subcutaneous, Route [Promoter]: Inhalation, Species: Hamster, Strain/Sex: Syrian golden/Male (50/Group_) “nasal epithelium: results were negative”.

For the molecule `OO`, the outcome by setting is: (Carcinogen: N-METHYL-N'-NITRO-N-NITROSOGUANIDINE, 70-25-7, Doses [Carcinogen]: 25 PPM IN WATER FOR 30 MIN, Doses [Promoter]: 0, 600, 3000 PPM IN DIETS CONTAINING HIGH (1000 PPM) LEVELS OF VITAMIN E FOR 8 MO (STUDY DURATION: 10 MO), Doses [Promoter]: 0, 600, 3000 PPM IN DIETS CONTAINING HIGH (1000 PPM) LEVELS OF VITAMIN E FOR 8 MO (STUDY DURATION: 10 MO), Route [Carcinogen]: IMMERSION, Route [Promoter]: ORAL, Species: FISH, Strain/Sex: RAINBOW TROUT/MALE, FEMALE) “liver: tumor”; (Carcinogen: N-METHYL-N'-NITRO-N-NITROSOGUANIDINE, 70-25-7, Doses [Carcinogen]: 25 PPM IN WATER FOR 30 MIN, Doses [Promoter]: 0, 600 PPM IN DIETS CONTAINING LOW (20 PPM) LEVELS OF VITAMIN E FOR 8 MO (STUDY DURATION: 10 MO), Route [Carcinogen]: IMMERSION, Route [Promoter]: ORAL, Species: FISH, Strain/Sex: RAINBOW TROUT/MALE, FEMALE) “liver: tumor”.

For the molecule `C=CCc1ccc(O)c(OC)c1`, for the setting “Carcinogen: 1,2-DIMETHYLHYDRAZINE, 57-14-7 1-METHYL-1-NITROSOUREA, 684-93-5, Carcinogen: 1,2-DIMETHYLHYDRAZINE, 57-14-7 1-METHYL-1-NITROSOUREA, 684-93-5, Doses [Carcinogen]: 40 MG/KG 1,2-DIMETHYLHYDRAZINE IN 0.9% NACL SUBCUTANEOUS 3/WK IN FIRST WK FOLLOWED BY 20 MG 1-METHYL-1-NITROSOUREA/5 ML, Doses [Promoter]: 0, 0.8% IN DIET FOR 48 WK ADMINISTERED 1 WK POST CARCINOGEN DOSE (STUDY DURATION: 52 WK), Route [Carcinogen]: SUBCUTANEOUS, INTRAPERITONEAL, Route [Promoter]: ORAL, Species: RAT, Strain/Sex: F344/MALE”, the outcome is “forestomach: papilloma”.

Regarding `CCCCCCCCCCCCCC(=O)O[C@@]12C[C@@H](C)[C@@]3(O)[C@@H](C=C(CO)C[C@]4(O)C(=O)C(C)=C[C@@H]34)[C@@H]1C2(C)C`, the outcome (Carcinogen: 7,12-DIMETHYLBENZ[A]ANTHRACENE, 57-97-6, Doses [Carcinogen]: 100 NMOL ONCE, Doses [Promoter]: 0, 80 NMOL 2/WK FOR 42 WK (STUDY DURATION: 42 WK), Route [Carcinogen]: DERMAL, Route [Promoter]: DERMAL, Species: MOUSE, Strain/Sex: NMRI) was “skin: tumor”.

Turning to `CC1(C)OC(=O)N(c2cc(Cl)cc(Cl)c2)C1=O`, the outcome (Carcinogen: 2-(ACETYLAMINO)FLUORINE, Doses [Carcinogen]: DIET, Doses [Promoter]: IN DIET, Route [Carcinogen]: ORAL, Route [Promoter]: ORAL, Species: RAT, Strain/Sex: MALE) is reported as “liver”.
